Laboratory results: patent publication US20230119894A1, “THERAPEUTIC OR PROPHYLACTIC METHOD FOR DIABETES USING COMBINATION MEDICINE” (Japan Tobacco Inc., priority 2019, published 2023)

Key:
glucose-loaded SD rats [1] = assay: OGTT (Oral Glucose Tolerance Test), Test Example 3; assay type: in vivo, rat; conditions: male SD rats; 3 mg/kg oral, 16 hours before glucose load; compared to vehicle, FIG. 2
Method: Vehicle (0.5% methylcellulose solution), or Compound 1, Compound A, or Compound B (3 mg/kg each) suspended in a 0.5% methylcellulose solution was orally administered in 5 mL/kg to an about 4-hour-fasted male SD rat (8-week old, Nihon Charles River K.K., 5 cases for each group).
Statistical analyses were based on Dunnett's multiple group test. The significance level was two-sided 5%.

glucose-loaded SD rats [2] = assay: OGTT (Oral Glucose Tolerance Test), Test Example 2; assay type: in vivo, rat; conditions: male SD rats; 1, 3, or 10 mg/kg oral, 16 hours before glucose load; compared to vehicle, FIG. 1
Method: Vehicle (0.5% methylcellulose solution) or Compound 1 (1, 3, or 10 mg/kg) suspended in a 0.5% methylcellulose solution was orally administered in 5 mL/kg to an about 4-hour-fasted male SD rat (8-week old, Nihon Charles River K.K., 6 cases for each group).
Statistical analyses were based on Steel's multiple test. The significance level was two-sided 5%.

SMILES: C[C@H]1C(=O)NC[C@@H]1C(=O)Nc1cc(-c2cc(F)cc(OC(C)(C)C)c2)n(C(F)(F)F)n1 [Example 1, (3R,4R)—N-(5-(3-(tert-butoxy)-5-fluorophenyl)-1-(trifluoromethyl)-1H-pyrazol-3-yl)-4-methyl-5-oxopyrrolidine-3-carboxamide]
- blood glucose level after the glucose load (Δ AUC 0-120 minutes, % of Vehicle) (glucose-loaded SD rats [1]): significantly reduced
- blood glucose level after the glucose load (Δ AUC 0-120 minutes, % of Vehicle) (glucose-loaded SD rats [2]): significantly reduced
